From US7897588B2, “Agents and methods for enhancing bone formation” (The Regents of the University of California, priority 2003, dated 2011)

Columns and labels:
[1] = test system: M2-10B4 mouse marrow stromal cell line; assay: Alkaline phosphatase (ALP) activity assay in M2 cells; type: cell-based; details: for inhibition of oxysterol-induced alkaline phosphatase activity: 22R+20S, SC-560 10 μM, ACA 25 μM, AACOCF3 20 μM, PD98059 20 μM
Description: (§1) Cells: M2-10B4 mouse marrow stromal cell line obtained from American Type Culture Collection (ATCC, Rockville, Md., U.S.A.) was derived from bone marrow stromal cells of a (C57BL/6J×C3H/HeJ) F1 mouse, and support human and murine myelopoiesis in long-term cultures (as per ATCC) and have the ability to differentiate into osteoblastic and adipocytic cells. Unless specified, these cells were cultured in RPMI 1640 containing 10% heat-inactivated FBS, and supplemented with 1 mM sodium pyruvate, 100 U/ml penicillin, and 100 […] (all from Irvine Scientific).
Alkaline phosphatase activity assay: Colorimetric alkaline phosphatase (ALP) activity assay on whole cell extracts was performed as previously described.
Test 1: M2 cells at confluence were treated with control vehicle (C), or 10 μM oxysterols, in an osteogenic medium consisting of RPMI 1640 to which 10% fetal bovine serum (FBS), 50 μg/ml ascorbate and 3 mM beta-glycerophosphate (βGP) were added. After 3 days of incubation, alkaline phosphatase (ALP) activity was determined in cell homogenates by a colorimetric assay. […] FIG. 3A is a bar graph depicting the effect of various oxysterols on alkaline phosphatase activity in M2 cells.
M2 cells at confluence were treated in osteogenic medium with control vehicle (C) or a combination of 22R and 20S oxysterols, at the indicated concentrations. ALP activity was measured after 3 days as described above. […] FIG. 3B is a bar graph depicting the effect of a combination of oxysterols at various doses on alkaline phosphatase activity in M2 cells.
Test 2: M2 cells were grown in RPMI medium containing 10% fetal bovine serum (FBS). At confluence, the cells were treated in RPMI containing 5% FBS plus ascorbate at 50 μg/ml and β-glycerophosphate at 3 mM to induce osteoblastic differentiation. Adipogenic differentiation was induced by treating the cells in growth medium plus 10 ˜M troglitazone. A vehicle (C) or oxysterol treatment was applied to cells in a variety of doses (in μM): 20S-Hydroxycholesterol, 25-Hydroxycholesterol, 22R-Hydroxycholesterol; 22S-Hydroxycholesterol; 7-ketocholesterol. Cells were always treated at 90% confluence. After 4 days, alkaline phosphatase activity was determined in whole cell lysates and normalized to protein. Alternatively, MSC cultures were prepared and treated with oxysterols as described above. Cells were treated at 90% confluence with the combination of 22R-Hydroxycholesterol and 20S-Hydroxycholesterol, each at 5 uM, for 4 to 96 hours. The oxysterols where removed and fresh media without oxysterols was added for a total duration of 96 hours. Alkaline phosphatase activity was measured in whole cell extracts and normalized to protein.
M2 cells were treated at 90% confluence with vehicle (C), or oxysterols 20S-Hydroxycholesterol or 22S-Hydroxycholesterol at (0.5 μM) or (1 μM), in the absence or presence of cytochrome P450 inhibitor (SKF525A 10 μM (+)). MSC cultures were also treated at 90% confluence with vehicle (C), or 20S-Hydroxycholesterol (2 μM), in the absence or presence of cytochrome P450 […] (Benzylimidazole 50 μM) or SKF525A (10 μM). After 4 days, alkaline phosphatase activity was measured in whole cell extracts and normalized to protein.
Next, a combination of 22R and 20S oxysterols (RS, 2.5 μM each) were added in the presence or absence of SC as indicated. After 3 days, ALP activity was measured as described earlier. […] (B) M2 cells were treated as described in (A) and after 10 days matrix mineralization in cultures was quantified by a ^45Ca incorporation assay as described earlier.

marrow stromal cells = assay: Osteogenic activity of marrow stromal cells (alkaline phosphatase, mineral formation), overall; type: cell-based, mouse; details: M2 cells; SC-560 at 1-20 μM; NS-398 at 20 μM
Description: Next, a combination of 22R and 20S oxysterols (RS, 2.5 μM each) were added in the presence or absence of SC as indicated. After 3 days, ALP activity was measured as described earlier. […] (B) M2 cells were treated as described in (A) and after 10 days matrix mineralization in cultures was quantified by a ^45Ca incorporation assay as described earlier. Results from a representative of three experiments are shown, reported as the mean±SD of quadruplicate determinations, normalized to protein concentration. (C) M2 cells were pretreated with 20 μM SC for 4 hours, followed by the addition of RS in the presence or absence of SC as described above. After 8 days, total RNA was isolated and analyzed for osteocalcin (Osc) and 18S rRNA expression by Northern blotting as previously described. Data from densitometric analysis of the Northern blot is shown in (D) as the average of duplicate samples, normalized to 18S rRNA. (E) M2 cells at confluence were pretreated for 2 hours with control vehicle (C), or PLA2 inhibitors ACA (25 μM) and AACOCF3 (AAC, 20 μM), in osteogenic medium. Next, a combination of 22R and 20S oxysterols (RS, 2.5 μM) was added in the presence or absence of the inhibitors as indicated. After 3 days, ALP activity was measured as previously described. […] After 10 days, matrix minerliazation in cultures was quantified using a ^45Ca incorporation assay as previously described. […]

M2 cells [2] = assay: Toxicity of COX inhibitors in M2 cell cultures; type: cell-based, mouse
[3] = test system: M2-10B4 mouse marrow stromal cell line; assay: Matrix mineralization in M2 cells (von Kossa staining, 45Ca incorporation assay); type: cell-based; details: 22R+20S, 10 days, SC-560 10 μM, ACA 25 μM, AACOCF3 20 μM, PD98059 20 μM
Description: as §1
(§2) Von Kossa and oil red O staining—Matrix mineralization in cell monolayers was detected by silver nitrate staining as previously described. Oil red O staining for detection of adipocytes was performed as previously described.
^45Ca incorporation assay—Matrix mineralization in cell monolayers was quantified using the ^45Ca incorporation assay as previously described.
M2 cells at confluence were treated in osteogenic medium with control vehicle or 5 μM oxysterols, alone or in combination as indicated. After 14 days, mineralization was identified by a von Kossa staining, which appears black. FIG. 3C is a depiction of von Kossa staining of M2 cells exposed to various conditions.
M2 cells were treated with control vehicle (C) or a combination of 22R and 20S oxysterols at increasing concentrations. After 14 days, matrix mineralization in cultures was quantified using a ^45Ca incorporation assay. […] FIG. 3D is a bar graph depicting the effect of a combination of oxysterols at various doses on calcium incorporation in M2 cells.
Next, a combination of 22R and 20S oxysterols (RS, 2.5 μM each) were added in the presence or absence of SC as indicated. After 3 days, ALP activity was measured as described earlier. […] (B) M2 cells were treated as described in (A) and after 10 days matrix mineralization in cultures was quantified by a ^45Ca incorporation assay as described earlier. Results from a representative of three experiments are shown, reported as the mean±SD of quadruplicate determinations, normalized to protein concentration. (C) M2 cells were pretreated with 20 μM SC for 4 hours, followed by the addition of RS in the presence or absence of SC as described above. After 8 days, total RNA was isolated and analyzed for osteocalcin (Osc) and 18S rRNA expression by Northern blotting as previously described. Data from densitometric analysis of the Northern blot is shown in (D) as the average of duplicate samples, normalized to 18S rRNA. (E) M2 cells at confluence were pretreated for 2 hours with control vehicle (C), or PLA2 inhibitors ACA (25 μM) and AACOCF3 (AAC, 20 μM), in osteogenic medium. Next, a combination of 22R and 20S oxysterols (RS, 2.5 μM) was added in the presence or absence of the inhibitors as indicated. After 3 days, ALP activity was measured as previously described. Data from a representative of three experiments are shown, reported as the mean±SD of quadruplicate determinations, normalized to protein concentration (p<0.01 for RS vs. RS+ACA and RS+AAC). (F) M2 cells were treated as described in (E). After 10 days, matrix minerliazation in cultures was quantified using a ^45Ca incorporation assay as previously described. Results from a representative of three experiments are shown, reported as the mean of quadruplicate determinations±SD, normalized to protein concentration (p<0.01 for RS vs. RS+ACA and RS+AAC).
(A) M2 cells at confluence were pretreated for four hours with RPMI containing 1% FBS, followed by treatment with control vehicle or 5 μM 20S oxysterol for 1, 4, or 8 hours. Next total cell extracts were prepared and analyzed for levels of native or phosphorylated ERK (pERK) using specific antibodies as previously described.

M2 cells [4] = assay: Adipogenesis of troglitazone-treated M2 cells (oil Red O staining, adipocyte count); type: cell-based, mouse; details: M2 cells treated with Tro 10 μM, oxysterols 10 μM, 10 days
Description: as §2
Test 1: M2 cells at 90% confluence were treated with vehicle (C), PPAR-γ activator, troglitazone 10 uM (Tro), alone or in combination with 10 μM oxysterols 20S-, 22R-, or 25S-hydroxycholesterol. After 8 days, adipocytes were identified by oil Red 0 staining and quantified by counting under a phase contrast microscope. FIG. 6A is a bar graph depicting the effect of oxysterols on reducing adipogenesis of MSC.
Test 2: (A) M2 cells at confluence were treated in RPMI containing 10% FBS with control vehicle or 10 μM troglitazone (Tro) in the absence or presence of 10 μM 20S or 22S oxysterols. After 10 days, adipocytes were visualized by oil Red O staining and quantified by light microscopy, shown in (B). Data from a representative of four experiments are shown, reported as the mean SD of quadruplicate determinations (p<0.001 for Tro vs. Tro+20S and Tro+22S). (C) M2 cells were treated at confluence with 10 μM Tro, alone or in combination with 10 μM 20S oxysterol. After 10 days, total RNA was isolated and analyzed for lipoprotein lipase (LPL), adipocyte P2 gene (aP2) or 18S rRNA expression by Northern blotting as described (Ref). Data from densitometric analysis of the Northern blot is shown in (D) as the average of duplicate samples, normalized to 18S rRNA.

CCCC(C(=O)OCCN(CC)CC)(c1ccccc1)c1ccccc1.Cl [SKF525A]
effect on the osteogenic effects of the oxysterols (alkaline phosphatase activity) ([1]; 20S or 22S 0.5 or 1 μM, SKF525A 10 μM, 4 days): potentiated

CCCCC[C@H](O)/C=C/[C@H]1[C@H](O)CC(=O)[C@@H]1C/C=C\CCCC(=O)O [PGE2, prostaglandin E2]
reversal of the effect of the COX-1 inhibitor on oxysterol-induced alkaline phosphatase activity ([1]; 1 μM PGE2 (data not shown)): reversed

CS(=O)(=O)Nc1ccc([N+](=O)[O-])cc1OC1CCCCC1 [NS-398]
inhibition of the osteogenic effects of oxysterol combinations (marrow stromal cells): negligible inhibitory effects | highest non-toxic dose (M2 cells [2]): 20 µM

CCCCCc1ccc(/C=C/C(=O)Nc2ccccc2C(=O)O)cc1 [ACA]
inhibition of oxysterol-induced mineralization [3]: inhibited | inhibition of oxysterol-induced alkaline phosphatase activity [1]: inhibited

COc1cccc(-c2cc(=O)c3ccccc3o2)c1N [PD98059]
inhibition of oxysterol-induced mineralization [3]: inhibited

CCCCC/C=C\C/C=C\C/C=C\C/C=C\CCCC(=O)C(F)(F)F [AACOCF3]
inhibition of oxysterol-induced mineralization [3]: inhibited | inhibition of oxysterol-induced alkaline phosphatase activity [1]: inhibited

CCCCC/C=C\C/C=C\C/C=C\C/C=C\CCCC(=O)O [arachidonic acid]
reversal of the effect of the PLA2 inhibitors on oxysterol-induced alkaline phosphatase activity ([1]; 25 μM arachidonic acid (data not shown)): reversed

CC(C)CCC[C@@H](C)[C@H]1CC[C@H]2[C@@H]3C(=O)C=C4C[C@@H](O)CC[C@]4(C)[C@H]3CC[C@]12C [7K, 7-ketocholesterol, reference compound]
induction of alkaline phosphatase activity ([1]; osteogenic medium, 10 μM oxysterols, 3 days): did not induce | inhibition of adipogenesis (M2 cells [4]): unable to inhibit
